Data as given in the NIST ThermoML archive (doi:10.1016/j.jct.2016.07.008).

Test: xn = mol fraction of the nth substance listed
Details: Liquid, Vibrating wire viscometry

CC(C)CC(C)(C)C [2,2,4-trimethylpentane] + CCCCO
viscosity [mPa·s]
Details | x2 = 0.3002 | x2 = 0.5003 | x2 = 0.8
333.15 K, 100 kPa | 0.3855 | 0.4739 | 0.7766
333.15 K, 1000 kPa | 0.3922 | 0.4756 | 0.7891
333.15 K, 5000 kPa | 0.4188 | 0.5003 | 0.8182
333.15 K, 10000 kPa | 0.4439 | 0.5334 | 0.868
333.15 K, 20000 kPa | 0.4973 | 0.5894 | 0.9602
333.15 K, 30000 kPa | 0.552 | 0.6494 | 1.04
333.15 K, 40000 kPa | 0.6073 | 0.7134 | 1.132
333.15 K, 50000 kPa | 0.6677 | 0.7814 | 1.232
333.15 K, 60000 kPa | 0.7297 | 0.8534 | 1.328
333.15 K, 70000 kPa | 0.7944 | 0.9294 | 1.419
333.15 K, 80000 kPa | 0.857 | 1.009 | 1.531
333.15 K, 100000 kPa | 0.9892 | 1.181 | 1.735
333.15 K, 120000 kPa | 1.133 | 1.369 | 1.973
333.15 K, 140000 kPa | 1.279 | 1.573 | 2.212
353.15 K, 100 kPa | 0.3085 | 0.3658 | 0.5523
353.15 K, 1000 kPa | 0.3131 | 0.3715 | 0.5621
353.15 K, 5000 kPa | 0.3362 | 0.3955 | 0.5811
353.15 K, 10000 kPa | 0.3574 | 0.4195 | 0.6183
353.15 K, 20000 kPa | 0.3982 | 0.4654 | 0.6708
353.15 K, 30000 kPa | 0.4475 | 0.5151 | 0.7334
353.15 K, 40000 kPa | 0.491 | 0.5714 | 0.793
353.15 K, 50000 kPa | 0.5403 | 0.6195 | 0.8609
353.15 K, 60000 kPa | 0.592 | 0.679 | 0.9278
353.15 K, 70000 kPa | 0.6322 | 0.7319 | 0.9984
353.15 K, 80000 kPa | 0.6788 | 0.7953 | 1.069
353.15 K, 100000 kPa | 0.7915 | 0.9151 | 1.203
353.15 K, 120000 kPa | 0.8951 | 1.026 | 1.365
353.15 K, 140000 kPa | 1.007 | 1.14 | 1.526
